Our source for the target mRNA inhibition values is the OligoGym collection.

After the bases stand the sugars from the 5' end (letter, count) and the backbone: PS all phosphorothioate, else s phosphorothioate and o phosphodiester by linkage. Methylation of C is not given here. e = 2'-O-(2-methoxyethyl) (MOE); k = constrained ethyl (cEt); d = 2'-deoxy (DNA); m = 2'-O-methyl

In the data set the target is HSD17B13. The conditions noted are these: ASO, HepaRG.

For the setting “1 µM”, ATGTTATCTCAAGTCA (sugars k3 d10 k3, PS) yielded a target mRNA inhibition of 79%.

For “ATGTTTATGTAAGCAC (sugars k3 d9 k3 e1, PS)”, the target mRNA inhibition stood at 6% (0.02 µM); 0% (0.078 µM); 39% (0.313 µM); 73% (1 µM); 66% (1.25 µM); 70% (5 µM).

Consider “ATGTUTATGTAAGCAC (sugars k3 d1 m1 d8 k3, PS)”, for which, under “1 µM”, the target mRNA inhibition was 45%.

Sequence ATTAAGCAGAATTGTG (sugars k3 d10 k3, PS) gave a target mRNA inhibition (1 µM) of 8%.

In turn, ATTACATATCAATGCC (sugars k3 d10 k3, PS) registered a target mRNA inhibition (1 µM) of 36%.

ATTAGAAGTCAGCCCA (sugars k3 d10 k3, PS): the target mRNA inhibition (1 µM) was 42%.

Regarding ATTATATGAGGTCTGT (sugars k3 d10 k3, PS), the target mRNA inhibition (1 µM) is 59%.

In the case of ATTATGAGGATCTGGA (sugars k3 d10 k3, PS), the target mRNA inhibition (1 µM) is 49%.

The sequence ATTATGTGATTGAGTT (sugars k3 d10 k3, PS) gave a target mRNA inhibition (1 µM) of 46%.

ATTCACCACGATTGTT (sugars k3 d10 k3, PS) registered a target mRNA inhibition (1 µM) of 0%.

Sequence ATTCGAAACTATTCAT (sugars k3 d10 k3, PS) returned a target mRNA inhibition (1 µM) of 24%.

ATTCGAATTTCTTCAA (sugars k3 d10 k3, PS) returned a target mRNA inhibition (1 µM) of 65%.

“ATTCTGTGGCATGGCT (sugars k3 d9 k3 e1, PS)” came in with a target mRNA inhibition (1 µM) of 68%.

Regarding “ATTCTGTGGCATGGCT (sugars kkdddddddddkekek, PS)”, the target mRNA inhibition (1 µM) is 55%.

ATTGATATACGATGGA (sugars k3 d10 k3, PS) gave a target mRNA inhibition (1 µM) of 31%.

In turn, ATTGCAGTTATTAGAA (sugars k3 d10 k3, PS) showed a target mRNA inhibition (1 µM) of 42%.

Where the note is “1 µM”, ATTGGTAAGTATTCCA (sugars k3 d10 k3, PS) displayed a target mRNA inhibition of 50%.

As to “ATTGTCTAAACATCTC (sugars k3 d9 k3 e1, PS)”, the target mRNA inhibition (1 µM) stood at 71%.

Turning to ATTGTTAGCTAAGGGA (sugars k3 d10 k3, PS), where the note is “1 µM”, the target mRNA inhibition is 22%.

ATTGTTTAGCTGATAG (sugars k3 d10 k3, PS): the target mRNA inhibition (1 µM) worked out at 61%.

For the sequence ATTTAGAATACGCTGA (sugars k3 d10 k3, PS), the target mRNA inhibition (1 µM) was 19%.

Regarding ATTTATTGGTATGGTA (sugars k3 d10 k3, PS), the target mRNA inhibition (1 µM) was 46%.

ATTTATTTGCTGGTCC (sugars k3 d10 k3, PS) returned a target mRNA inhibition (1 µM) of 47%.

Regarding ATTTTACTGGGATACT (sugars k3 d10 k3, PS), where the note is “1 µM”, the target mRNA inhibition came to 49%.

For ATTTTTAATACGACTT (sugars k3 d10 k3, PS), under “1 µM”, the target mRNA inhibition came out at 35%.

Consider “CAAAAGACTTTGAGAC (sugars k3 d1 m1 d8 k3, PS)”, for which the target mRNA inhibition (1 µM) came to 25%.

Under “1 µM”, CAAAAGTGTCCTCGAT (sugars k3 d10 k3, PS) registered a target mRNA inhibition of 5%.

As for CAAACTGCTACTGTGT (sugars k3 d10 k3, PS), where the note is “1 µM”, the target mRNA inhibition came out at 57%.

On to CAACGACTCCAAGTAG (sugars k3 d10 k3, PS), for which the target mRNA inhibition (1 µM) came to 0%.

For the sequence CAACTTTTAGTCAGGT (sugars k3 d10 k3, PS), the target mRNA inhibition (1 µM) was determined as 66%.

“CAAGAGGATAGTCCAT (sugars k3 d9 k3 e1, PS)” yielded a target mRNA inhibition (1 µM) of 64%.

Under “1 µM”, CAAGGGAACACTGTCA (sugars k3 d10 k3, PS) returned a target mRNA inhibition of 58%.

As to CAAGTAGGAGTAGATG (sugars k3 d10 k3, PS), the target mRNA inhibition (1 µM) was 5%.

For the sequence CAAGTTTTCACCTCAG (sugars k3 d10 k3, PS), the target mRNA inhibition was 17% (0.02 µM); 41% (0.078 µM); 75% (0.313 µM); 93% (1 µM); 92% (1.25 µM); 95% (5 µM).

For the sequence CAATAGTACTATAGTA (sugars k3 d10 k3, PS), for the setting “1 µM”, the target mRNA inhibition was found to be 14%.

With CAATCCCAACCAAACT (sugars k3 d10 k3, PS), the target mRNA inhibition (1 µM) worked out at 49%.

Regarding CAATTTATCATACCAC (sugars k3 d10 k3, PS), the target mRNA inhibition (1 µM) came out at 37%.

As for CAATTTATTTGCTGGT (sugars k3 d10 k3, PS), the target mRNA inhibition (1 µM) was 31%.

Sequence CACAAGCACACTGTAA (sugars k3 d10 k3, PS) gave a target mRNA inhibition (1 µM) of 2%.

For the sequence “CACAAGTAAGGTAAAG (sugars kkdddddddddkekek, PS)”, where the note is “1 µM”, the target mRNA inhibition stood at 38%.

Where the note is “1 µM”, CACACTAATGAATCAT (sugars k3 d10 k3, PS) yielded a target mRNA inhibition of 30%.

The sequence CACATAGCTAACTCAG (sugars k3 d10 k3, PS) registered a target mRNA inhibition (1 µM) of 42%.

Sequence CACATATGTGAAGAGC (sugars k3 d10 k3, PS) gave a target mRNA inhibition (1 µM) of 71%.

Take CACGATTGTTACATCA (sugars k3 d10 k3, PS): under “1 µM”, the target mRNA inhibition came to 37%.

Regarding CACTAAAGGTTTCTGT (sugars k3 d10 k3, PS), the target mRNA inhibition (1 µM) stood at 56%.

In turn, CACTAATATTGAGGCA (sugars k3 d10 k3, PS) returned a target mRNA inhibition (1 µM) of 31%.

CACTAATCTCAGTACT (sugars k3 d10 k3, PS) registered a target mRNA inhibition (1 µM) of 48%.

In turn, CACTAATGAATCATGA (sugars k3 d10 k3, PS) yielded a target mRNA inhibition (1 µM) of 25%.

In turn, CACTCAGCTGCAGTTT (sugars k3 d10 k3, PS) yielded a target mRNA inhibition (1 µM) of 13%.

For the setting “1 µM”, CACTGATTTAGTTGGT (sugars k3 d10 k3, PS) gave a target mRNA inhibition of 66%.

CACTGCCAGATTGCAC (sugars k3 d10 k3, PS) returned a target mRNA inhibition (1 µM) of 38%.

Regarding CACTGGATGGATTTCT (sugars k3 d10 k3, PS), the target mRNA inhibition (1 µM) came out at 72%.

For CACTGTGACGATGTGG (sugars k3 d10 k3, PS), for the setting “1 µM”, the target mRNA inhibition amounted to 10%.

CAGAAATTCACCTTGA (sugars k3 d10 k3, PS) returned a target mRNA inhibition (1 µM) of 28%.

The sequence CAGAAGTATGTGAACT (sugars k3 d10 k3, PS) gave a target mRNA inhibition (1 µM) of 22%.

As to CAGAATAGAGTTGCAC (sugars k3 d10 k3, PS), the target mRNA inhibition (1 µM) turned out to be 50%.

For the sequence CAGACTAAGGGACCAG (sugars k3 d10 k3, PS), the target mRNA inhibition is, setting by setting: (0.02 µM) 23%; (0.078 µM) 24%; (0.313 µM) 63%; (1 µM) 75%; (1.25 µM) 76%; (5 µM) 89%.

Turning to CAGACTTCTTACGACT (sugars k3 d10 k3, PS), the target mRNA inhibition (1 µM) was determined as 33%.

As for “CAGAGACATGAGGTTT (sugars k3 d9 k3 e1, PS)”, under “1 µM”, the target mRNA inhibition was 45%.

Where the note is “1 µM”, “CAGATTATTATGTGAT (sugars k3 d9 k3 e1, PS)” returned a target mRNA inhibition of 38%.

For CAGATTATTATGTGAT (sugars k3 d10 k3, PS), the target mRNA inhibition (1 µM) stood at 51%.

Under “1 µM”, “CAGATTATTATGTGAT (sugars kkdddddddddkekek, PS)” yielded a target mRNA inhibition of 31%.

On to “CAGAUTGGAATGCTAC (sugars k3 d1 m1 d8 k3, PS)”, for which the target mRNA inhibition runs as follows: (0.02 µM) 7%; (0.078 µM) 25%; (0.313 µM) 42%; (1 µM) 70%; (1.25 µM) 56%; (5 µM) 82%.

CAGCAAAGTTTGGGCA (sugars k3 d10 k3, PS) registered a target mRNA inhibition (1 µM) of 37%.

With CAGCATATTCATTTGG (sugars k3 d10 k3, PS), the target mRNA inhibition (1 µM) was 49%.

Regarding “CAGCATTGATTCGAAA (sugars k3 d1 m1 d8 k3, PS)”, the target mRNA inhibition (1 µM) worked out at 37%.

Take “CAGCATTGATTCGAAA (sugars k3 d9 k3 e1, PS)”: under “1 µM”, the target mRNA inhibition turned out to be 53%.

In the case of CAGCATTGATTCGAAA (sugars k3 d10 k3, PS), the target mRNA inhibition was 2% (0.02 µM); 0% (0.078 µM); 26% (0.313 µM); 69% (1 µM); 56% (1.25 µM); 65% (5 µM).

CAGGCTGTAAGAGTCA (sugars k3 d10 k3, PS): where the note is “1 µM”, the target mRNA inhibition came out at 56%.

Regarding CAGTAGATTTGGTAGA (sugars k3 d10 k3, PS), the target mRNA inhibition (1 µM) was 49%.

The sequence CAGTCCTTGTGTAGTC (sugars k3 d10 k3, PS) gave a target mRNA inhibition (0.02 µM) of 18%; a target mRNA inhibition (0.078 µM) of 21%; a target mRNA inhibition (0.313 µM) of 49%; a target mRNA inhibition (1 µM) of 70%; a target mRNA inhibition (1.25 µM) of 79%; a target mRNA inhibition (5 µM) of 95%.

Where the note is “1 µM”, “CAGTCTTAAACCTTCC (sugars kkdddddddddkekek, PS)” gave a target mRNA inhibition of 51%.

As to “CAGTTTTCCTCATGAT (sugars k3 d9 k3 e1, PS)”, the target mRNA inhibition (1 µM) was 65%.

In turn, CATAAAGCTGGATTGT (sugars k3 d10 k3, PS) displayed a target mRNA inhibition (1 µM) of 0%.

The sequence CATAACTACTTCAGTT (sugars k3 d10 k3, PS) returned a target mRNA inhibition (1 µM) of 3%.

Consider CATAACTTCATAGTGG (sugars k3 d10 k3, PS), for which, where the note is “1 µM”, the target mRNA inhibition was 31%.

The sequence “CATAACTTCATAGTGG (sugars kkdddddddddkekek, PS)” gave a target mRNA inhibition (1 µM) of 15%.

Sequence CATAATAATAGCTCTA (sugars k3 d10 k3, PS) gave a target mRNA inhibition (1 µM) of 41%.

For the sequence CATACCCATTCTAACT (sugars k3 d10 k3, PS), the target mRNA inhibition (1 µM) was 6%.

CATATTCCCTGATGAT (sugars k3 d10 k3, PS): the target mRNA inhibition (1 µM) came out at 14%.

In the case of CATCCCCTAAGTTATT (sugars k3 d10 k3, PS), the target mRNA inhibition (1 µM) came to 24%.

Sequence CATCTACATGGATCCA (sugars k3 d10 k3, PS) displayed a target mRNA inhibition (1 µM) of 63%.

“CATCTCTGGGACCAAG (sugars kkdddddddddkekek, PS)” had a target mRNA inhibition (1 µM) of 44%.

CATGAAGATTAGTTAA (sugars k3 d10 k3, PS) returned a target mRNA inhibition (1 µM) of 11%.
